From patent US20220211684A1, “ANTIFUNGAL AGENTS FOR CANDIDA AURIS DECOLONIZATION” (Scynexis, Inc., priority 2019, published 2022)
Values after ≈ are worked out from the molar mass of the structure shown. Read-outs that look alike come from different tables or passages of the source.

Assays:
Candida auris [1] = assay: Guinea pig model of Candida auris skin infection, skin burden; assay type: in vivo, Guinea pigs
Method: (§1) Guinea pigs (n=5 per group) were randomized to receive 10 or 20 or 30 mg/kg of ibrexafungerp twice daily (BID) by gavage, or vehicle control. Animals received a single dose of prednisolone at 30 mg/kg, subcutaneously, one day prior and one and three days post infection to favor immuno-compromise of the animals and facilitate the development of Candida auris skin infection. A 100 μl cell suspension containing 10^8 blastospores of Candida auris was applied to an abraded area on the back of the animals. At Day 7, tissue biopsies were examined histologically, and tissue fungal burden was analyzed by colony counts from skin samples. PK bioanalysis of ibrexafungerp plasma concentrations was conducted following the final dose (Day 7).

in vivo = assay: in vivo; parameters: species or system Guinea pigs; settings: guinea pig, po, 10 mg/kg
Method: as §1

clinical = assay: clinical; parameters: species or system humans; settings: human, in vivo, po
Description: Print 2019 February PMID: 30478166). Such features are important for the treatment and prevention of fungal infections, as well as for achieving decolonization of susceptible fungal pathogens such as Candida auris.

Candida auris [2] = assay: MIC50 against 102 Candida auris clinical and surveillance isolates from an outbreak in New York; assay type: cell-based; settings: 97 isolates with variable or multidrug resistance; for MIC50: Candidozyma auris
Description: Low MIC50 values for ibrexafungerp were found for 102 Candida auris clinical and surveillance isolates from an outbreak in New York. The isolates included C. auris with a variable resistance to antifungal drugs (resistance to one drug in one or two classes of antifungal drugs), multidrug-resistant isolates (resistance to two or more drugs between two classes of antifungal drugs), and pan-resistant isolates (resistance to two or more azoles, all tested echinocandins, and amphotericin B). For the 97 isolates that had variable or multidrug resistance to the other tested antifungal drugs (including fluconazole, voriconazole, itraconazole, isavuconazole, posaconazole, anidulafungin, caspofungin, micafungin, amphotericin B, and flucytosine), the ibrexafungerp MIC50 range was 0.06-0.5 μg/ml; the median and mode for ibrexafungerp MIC50 were each 0.5 μg/ml.

Candida auris [3] = settings: 100 isolates of Candida auris; cited from earlier work
Candida spp. = settings: previous animal models of systemic Candida spp. infection; cited from earlier work

AUC(0-t) (in vivo): 2800 ng·h/mL
bioavailability (clinical): > 20%
MIC50 range (Candida auris [2]): 0.06 to 0.5 µg/mL
MIC50 (Candida auris [2]; read-out: MIC50 median): 0.5 µg/mL (≈ 0.685 µM)
MIC50 (Candida auris [2]; read-out: MIC50 mode): 0.5 µg/mL (≈ 0.685 µM)
SMILES: CC(C)[C@@H](C)[C@@]1(C)CC[C@]2(C)[C@H]3CC[C@@H]4[C@@]5(COC[C@@]4(C)[C@@H](OC[C@](C)(N)C(C)(C)C)[C@H](n4ncnc4-c4ccncc4)C5)C3=CC[C@@]2(C)[C@@H]1C(=O)O [ibrexafungerp, (1S,4aR,6aS,7R,8R,10aR,10bR,12aR,14R,15R)-15-[[(2R)-2-amino-2,3,3-trimethylbutyl]oxy]-8-[(1R)-1,2-dimethylpropyl]-14[5-(4-pyridinyl)-1H-1,2,4-triazol-1-yl]-1,6,6a,7,8,9,10,10a,10b,11,12,12a-dodecahydro-1,6a,8,10a-tetramethyl-4H-1,4a-propano-2H-phenanthro[1,2-c]pyran-7-carboxylic acid]
Tissue burdens of Candida auris (skin, colony counts) (Candida auris [1]; 10, 20 or 30 mg/kg BID by gavage, Day 7, versus vehicle control): lower in all treatment groups versus in the vehicle control group
fungal elements in biopsy samples (histology) (Candida auris [1]; Day 7 tissue biopsies, versus untreated control): No fungal elements were observed
clinical scores (crusting, inflammation) (Candida auris [1]; among the active treatment groups): no significant differences
MIC50 (Candida auris [3]): 0.5 micrograms/ml
MIC90 (Candida auris [3]): 1 micrograms/ml
MIC overall mode (Candida auris [3]): 1 micrograms/ml
exposures needed to achieve efficacy (Candida spp.): ~11.2 µg·h/mL
